Results taken from patent publication US20080221074A1, “Drug Screen and Treatment Method” (priority 2006, published 2008).

What was measured:
human whole blood = test: γ-interferon production in human whole blood exposed to LPS; format: cell-based; settings: 24 hours with LPS; 16α-bromoepiandrosterone at 100 ng/mL
Experimental: Anti-inflammation activity in human cells in vitro. […] The amount of γ-interferon was measured in the growth medium when the cells had been incubated in the presence of LPS for 24 hours.

[1] = system: CD4^+CD25^+ T regulatory cells; test: generation of CD4+CD25+ T regulatory cells after adoptive transfer; format: in vivo, B6 mice; settings: 1 mg/animal/day s.c. 14 days
Experimental: Inhibition of the generation of CD4^+CD25^+ T regulatory cells or their activity in vivo. Purified CD4^+CD25^− T cells (5×10^6 cells) from congenic B6.SJL mice (CD45.1) per group were adoptively transferred into each of five B6 mice (CD45.2). The purified CD4^+CD25^− T cells were obtained by fluorescence activated cell sorting (FACS) of the donor cells at least twice. Vehicle (0.1% carboxymethylcellulose, 0.9% saline, 2% tween 80, 0.05% phenol) or 16α-bromoepiandrosterone in vehicle (1 mg/animal/day in 100 μL vehicle) was injected subcutaneously before transfer of the cells from the CD45.1 donor animals and the injections were continued daily for 14 days. Thymus, lymph nodes and spleens were collected from the animals at day 15. Samples of thymus, lymph node and spleen were obtained from individuals, and the cells were labeled with fluorescent antibody that bound to CD4, CD25, CD103 or Foxp3. The cells were then analyzed by flow cytometry to enumerate the numbers of the various cell types. The remainder of cells from lymph nodes and spleen of each treatment group were pooled, pre-enriched for CD4^+CD25^+ cells and then analyzed for CD4^+CD25^+ that arose from the host (endogenous CD45.2 cells) and from donor cells (CD45.1 cells that converted from the CD4^+CD25^− donor phenotype to the CD4^+CD25^+ phenotype after residing in vivo for 15 days). The cells were analyzed by cell sorter. To test for regulatory function, varying numbers of purified converted CD45.1 or endogenous CD45.2 CD4^+CD25^+ cells were co-cultured with 2000 CD4^+CD25^− responder cells, 1×10^5 irradiated spleen cells as antigen presenting cells, and […] of anti-CD3 antibody. Fresh CD4^+CD25^+ cells were used as controls. Proliferation was determined by measurement of ^3H-thymidine uptake 4 days after initiation of culture.

[2] = system: lethal amount of bacterial lipopolysaccharide (LPS); test: lethal shock protocol; format: in vivo, mice
Experimental: Treatment of lethal inflammation/shock. Two compounds, 16α-bromoepiandrosterone (3β-hydroxy-16α-bromoandrostane-17-one) and 3β,16α-dihydroxy-17-oxoandrostane, were used in a lethal shock protocol. In one protocol, 3 mg of 16α-bromoepiandrosterone was administered to one group of animals by oral gavage, while another group received 3 mg of 16α-bromoepiandrosterone by subcutaneous injection. A group of control animals received a placebo control. In this protocol, the 16α-bromoepiandrosterone was administered to mice at 24 hours before and at 1 hour after administration of a lethal amount of bacterial lipopolysaccharide (LPS). By the end of the observation period, 72 hours after LPS administration, none of the vehicle treated placebo control animals had survived, while 65% of animals that received 16α-bromoepiandrosterone by oral administration survived. 50% of the animals that received 16α-bromoepiandrosterone by subcutaneous injection survived. Animals that survived for 72 hours all recovered from the LPS exposure.
In a second assay, 16α-bromoepiandrosterone or 3β,16α-dihydroxy-17-oxoandrostane was administered to mice by oral gavage at 24 hours before and 1 hour after administration of a lethal amount of LPS. A vehicle treated group of animals was used as the placebo control.

Pseudomonas aeruginosa = test: clearance of Pseudomonas aeruginosa infection from lung tissue; format: in vivo, CFTR mice; settings: 40 mg/kg; day 10; vs vehicle
Experimental: Clearance of bacteria from lung tissue. The capacity of 16α-bromoepiandrosterone to clear a Pseudomonas aeruginosa infection from lung tissue was shown using a previously published protocol, A. van Heeckeren et al., J. Clin. Invest., 100(11):2810-2815 […]; A. van Heeckeren et al., Am. J. Respir. Crit. Care Med., 161:271-279 2000. The protocol was conducted in CFTR mice, which are used as an animal model for human cystic fibrosis, S. D. Freedman et al., Proc. Natl. Acad. Sci. USA, 96(24):13995-14000 1999; W. Zeng et al., Am. J. Physiol. Cell. Physiol. […] Establishment of chronic P. aeruginosa infection using agarose beads containing bacteria (50 μL containing about 6.1×10^4 CFU/animal) was published earlier, J. R. Starke et al., Pediatr. Res., 22:698-702 1987. Two groups of mice (n=9 for each group) were treated with 40 mg/kg of 16α-bromoepiandrosterone or vehicle (control) and the bacterial burden in the lungs of the animals was determined at 10 days after introduction of the agarose beads into the lung.

NF-κB = test: inhibition of NF-κB activation in NF-κB-bla THP-1 cells after LPS stimulation; format: cell-based, human
Outline: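 THP-1 monocytes stably carrying an NF-κB response element–driven β-lactamase reporter, plated about 24 h before activation with LPS at 0.2 ng/mL. Reporter activity measured by FRET ratiometric detection; values are averages of usually 2-4 runs per compound.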

C[C@]12CC[C@H](O)C[C@@H]1CC[C@@H]1[C@@H]2CC[C@]2(C)C(=O)[C@H](Br)C[C@@H]12 [16α-bromoepiandrosterone]
production of γ-interferon (human whole blood): Reduced production
donor CD45.1 CD4^+CD25^+CD103^+ cells of total donor CD4^+CD25^+ cells in spleen [1]: 9.63%
proportion of endogenous CD45.2 CD4^+CD25^+CD103^+ Treg cells in spleen [1]: 13.40%
donor CD45.1 CD4^+CD25^+ cell number in spleen ([1]; day 15): 0.62×10^5 cells
endogenous CD45.2 CD4^+CD25^+ cell number in spleen ([1]; day 15): 5.49×10^6 cells
endogenous CD45.2 CD4^+CD25^+ cells in the thymus ([1]; day 15): 1.59×10^5
survival 72 hours after LPS ([2]; 3 mg oral gavage 24 h before and 1 h after LPS): 65%
survival 72 hours after LPS ([2]; 3 mg subcutaneous injection 24 h before and 1 h after LPS): 50%
survival 72 hours after LPS ([2]; second assay, oral gavage 24 h before and 1 h after LPS): 80%
bacterial burden in the lungs (Pseudomonas aeruginosa): reduced
maximum inhibition of NF-κB (NF-κB): 100%
IC50 (NF-κB; LPS stimulation, 50% of the compound's maximum inhibition, averages, read-out: IC50): 8.8 µM
